Article PMC10175918 (Communications Biology, 2023)
Values belong to the molecule of their own block, whether it stands above or below them.

What was measured:
[1] = molecular target: T1, urotensin-II receptor (UTS2R) (Homo sapiens, UniProt Q9UKP6); assay: TGFα-shedding assay, concentration-response on UTS2R (endogenous G protein), with or without urantide; assay type: cell-based; settings: for UTS2R activation: TGFα-shedding, screening 10 μM and response curves (Fig. 1a, Supplementary Fig. 1a)
T1 construct: expressed in transfected cells; host or cells: HEK293A
T1 sequence (Q9UKP6 1-389): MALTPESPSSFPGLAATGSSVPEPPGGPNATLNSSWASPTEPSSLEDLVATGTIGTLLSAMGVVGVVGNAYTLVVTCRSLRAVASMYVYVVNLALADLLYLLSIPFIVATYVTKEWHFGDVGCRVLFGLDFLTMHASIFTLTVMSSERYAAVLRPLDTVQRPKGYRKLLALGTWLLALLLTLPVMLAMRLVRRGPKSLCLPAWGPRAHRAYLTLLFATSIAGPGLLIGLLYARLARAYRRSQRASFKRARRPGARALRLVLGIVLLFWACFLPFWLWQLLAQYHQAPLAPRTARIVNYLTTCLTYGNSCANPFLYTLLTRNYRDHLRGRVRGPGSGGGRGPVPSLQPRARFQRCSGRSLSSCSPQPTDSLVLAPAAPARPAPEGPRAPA

[2] = molecular target: T2, FLAG-UTS2R (urotensin-II receptor) (human) (UniProt Q9UKP6)
T2 sequence: T1 sequence (Q9UKP6 1-389)

Molecule: N#C[C@@]1(c2ccc3c(N)ncnn23)O[C@H](CO)[C@@H](O)[C@H]1O [GS-441524]
- UTS2R activation [1]: no effect on UTS2R activation

Molecule: CC(C)[C@H](NC(=O)[C@@H]1CSSC[C@H](NC(=O)[C@H](CC(=O)O)NC(=O)[C@@H]2CCCN2C(=O)[C@@H](NC(=O)[C@@H](N)CCC(=O)O)[C@@H](C)O)C(=O)N[C@@H](Cc2ccccc2)C(=O)N[C@@H](Cc2c[nH]c3ccccc23)C(=O)N[C@@H](CCCCN)C(=O)N[C@@H](Cc2ccc(O)cc2)C(=O)N1)C(=O)O [UT2]
- Emax ([1]; WT UTS2R, without chimeric Gα protein, read-out: Emax): 59 ± 0.7%
- activation at 0.1 µM ([1]; compound concentration Log10 (M) -7, without urantide, read-out: UTS2R activation (%AP-TGFα release)): 59.6%
- activation at 0.01 µM ([1]; compound concentration Log10 (M) -8, without urantide, read-out: UTS2R activation (%AP-TGFα release)): 60.1%
- activation at 0.001 µM ([1]; compound concentration Log10 (M) -9, without urantide, read-out: UTS2R activation (%AP-TGFα release)): 58.8%
- activation at 0.0001 µM ([1]; compound concentration Log10 (M) -10, without urantide, read-out: UTS2R activation (%AP-TGFα release)): 51.6%
- activation at 10 pM ([1]; compound concentration Log10 (M) -11, without urantide, read-out: UTS2R activation (%AP-TGFα release)): 18.4%

Second part, the molecule after the results:

- UTS2R activation [1]: no effect on UTS2R activation
Molecule: C[C@H](NP(=O)(O)OC[C@H]1O[C@@](C#N)(c2ccc3c(N)ncnn23)[C@H](O)[C@@H]1O)C(=O)O [GS-704277]

- TGFα-shedding assay (AP-TGFα release), untagged UTS2R in HEK293A cells: Emax of receptor activation by UT2 (%AP-TGFα release) [2]: 59
- TGFα-shedding assay (AP-TGFα release), untagged UTS2R in HEK293A cells: pEC50 of receptor activation by UT2 [2]: 10.7
Molecule: ETPDCFWKYCV [urotensin-II (UT2), endogenous peptidic ligand of UTS2R]
